This assay concerns the target T1, PLA2G16 (Homo sapiens, UniProt P53816).
T1 construct: Hexa-His (N); made in house; host or cells: E. coli BL21(DE3)
T1 sequence (P53816 1-162): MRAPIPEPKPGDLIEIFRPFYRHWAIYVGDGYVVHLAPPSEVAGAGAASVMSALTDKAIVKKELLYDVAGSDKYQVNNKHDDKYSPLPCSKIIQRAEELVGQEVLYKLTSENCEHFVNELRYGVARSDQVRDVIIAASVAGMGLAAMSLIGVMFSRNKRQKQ
Nature of the assay: Enzyme activity assay for PLA2G16 (Red/Green BODIPY PC-A2 fluorescence). Type of assay: biochemical. The note with it: His-tagged PLA2G16, 4 min pre-incubation, 2 nM to 50 μM; read-out: IC50 values of the compounds determined in the enzyme activity assay for PLA2G16. An excerpt: A cDNA for PLA2G16(NM_007069) was custom-synthesized by Genscript (Piscataway, USA) and inserted into a pET-based bacterial expression vector [Moffatt, B. A. and Studier, F. W. (1986) J. Mol. Biol. 189, 113-130; Rosenberg, A. H., Lade, B. N., Chui, D., Lin, S., Dunn, J. J., and Studier, F. W. (1987) Gene 56, 125-135], enabling the expression of N-terminally Hexa-His-tagged PLA2G16. E. coli BL21(DE3) (Agilent) were transformed with pET-His-PLA2G16according to the manufacturer's instructions and plated on Carbenicillin-containing agar plates (final concentration: 100 μg/mL). A single clone was in occulated in 100 mL LB medium supplemented with 100 μg/mL Carbenicillin and the in occulated culture was grown at 37° C. overnight in a rotary shaker. On the next day, the bacterial culture was diluted in LB medium supplemented with 100 μg/mL Carbenicillin (30 mL overnight culture in 800 mL total culture volume). Bacteria were grown at 37° C. until the OD600 reached 0.6. Gene expression was induced by addition of 1 mM isopropyl-β-D-thiogalactopyranosid (IPTG) for 2 h at 18° C. Subsequently, bacteria were harvested by centrifugation (15 min; 10,000×g; 4° C.) and frozen at −80° C. The bacterial pellet was resuspended in Buffer A (50 mM Tris/HCl pH 7.5, 500 mM NaCl, 5% glycerol, 5 mM β-Mercaptoethanol and 1 mM PMSF) and lysed by addition of 1 mg/mL lysozyme (Sigma Aldrich) and 100 μg/mL DNasel-(Roche). The sample was incubated at 30° C. for 30 min to allow lysis to occur. Then, the lysate was cleared by centrifugation (15,000×g, 15 min, 4° C.) and incubated with 1.5 mL Ni-NTA agarose suspension (Qiagen) for 60 min at 4° C. The Ni-NTA agarose was washed with 10 mL Buffer A. Bound protein was eluted by applying a manual gradient of Buffer A supplemented with increasing concentrations of imidazole (Sigma Aldrich; 25/50/75/100/250 mM). Purified fractions were analyzed by SDS-PAGE followed by Coomassie staining to assess the purity.
Activity of the protein was assessed as follows: Red/Green BODIPY® PC-A2 (Invitrogen, 1 mM in DMSO) was mixed with equal volumes of 1,2-Dioleoyl-sn-glycero-3-phosphocholine (DOPC; Sigma Aldrich, 10 mM in Ethanol) and 1,2-Dioleoyl-sn-glycero-3-phospho-rac-(1-glycerol) (DOPG; Sigma Aldrich, 10 mM in Ethanol) and 0.5 volumes of Cholesterol (CHOL; Sigma Aldrich, 10 mM in Ethanol) and vortexed for 5 s. The mixture (Red/Green BODIPY® PC-A2/DOPC/DOPG/CHOL) was diluted 1:91.4 in activity assay buffer (50 mM Tris/HCl pH 8.5, 100 mM NaCl) using a small-orifice pipette tip under constant vortexing. In the following, this preparation will be referred to as the “substrate solution”.
In order to evaluate their inhibitory potential, compounds were dissolved at 10 mM concentration in DMSO and directly spotted into assay plates (Corning, Cat. No. 3576) using acoustic liquid transfer (Labcyte Echo 525). Each compound was spotted at increasing concentrations, ranging from 2 nM to 50 μM (concentration in the final assay volume). 50 μl of PLA2G16 enzyme solution (diluted in activity buffer, supplemented with 5 mM L-Glutathione; Sigma Aldrich) was pre-incubated with compounds for 4 min., followed by addition of 50 μl of substrate solution. Fluorescence was recorded immediately after substrate addition for a total time of 10 min. using a SpectraMax M5 multimode reader (Excitation wavelength: 480 nm, emission wavelength: 530 nm). The relative increase of fluorescence over time is referred to as the enzyme activity. Half-maximal inhibitory concentrations (IC50) were derived by non-linear regression analysis using the drc package in R (R Development. Core Team, 2005).

Molecules are shown by their SMILES. A value given as a limit tells only on which side of the number the result lay.

Consider `C[C@@H](O)CNC(=O)C(=O)C1CCC(=O)N1Cc1ccc(Cl)cc1` (stereo partly drawn) [FP 259, 2-{1-[(4-Chlorophenyl)methyl]-5-oxopyrrolidin-2-yl}-N-[(2R)-2-hydroxypropyl]-2-oxoacetamide], for which the IC50 is less than 1 µM. To `COc1ccc(N(C=O)C(C)C(=O)C(=O)NCc2cccc(Cl)c2)cc1` (stereo not shown) [FP 5, N-[(3-Chlorophenyl)methyl]-3-[N-(4-methoxyphenyl)formamido]-2-oxobutanamide] belongs less than 1 µM; to `Cc1cc(C(=O)N(C)C(C)C(=O)C(=O)NCC2CCCCC2)no1` (stereo not shown) [FP 147, N-(Cyclohexylmethyl)-3-[N-methyl-1-(5-methyl-1,2-oxazol-3-yl)formamido]-2-oxobutanamide], less than 1 µM. To `CC(C(=O)C(=O)NCc1cccc(Cl)c1)N(C=O)C1CCCCC1` (stereo not shown) [FP 17, N-[(3-Chlorophenyl)methyl]-3-(N-cyclohexylformamido)-2-oxobutanamide] belongs less than 1 µM; to `COc1ccccc1N(C=O)[C@H](C)C(=O)C(=O)NCc1cccc(Cl)c1` (single isomer, unassigned) [FP 2], less than 1 µM; to `COc1ccccc1N(C=O)C(C)C(=O)C(=O)NCc1ccccc1Cl` (stereo not shown) [FP 86, N-[(2-Chlorophenyl)methyl]-3-[N-(2-methoxyphenyl)formamido]-2-oxobutanamide], less than 1 µM.

For `COc1ccccc1N(C=O)C(C)C(=O)C(=O)NCc1cccc(C)c1` (stereo not shown) [FP 87, 3-[N-(2-Methoxyphenyl)formamido]-N-[(3-methylphenyl)methyl]-2-oxo butanamide], the IC50 was less than 1 µM.

On to `O=C(NC1CC1)C(=O)C1CCC(=O)N1Cc1ccccc1Cl` (stereo not shown) [FP 260, 2-{1-[(2-Chlorophenyl)methyl]-5-oxopyrrolidin-2-yl}-N-cyclopropyl-2-oxoacetamide], for which the IC50 is less than 1 µM.

In the case of `COc1ccccc1N(C=O)C(C)C(=O)C(N)=O` (stereo not shown) [FP 14, 3-[N-(2-Methoxyphenyl)formamido]-2-oxobutanamide], the concentration for half-maximal inhibition (IC50) lay within 1 to 10 µM.

For the compound `CC(C)N(C=O)C(C)C(=O)C(=O)NCc1cccc(Cl)c1` (stereo not shown) [FP 21, N-[(3-Chlorophenyl)methyl]-2-oxo-3-[N-(propan-2-yl)formamido]butanamide], the 50% inhibitory concentration (IC50) is less than 1 µM.

On to `COc1ccccc1N(C=O)C(C)(C)C(=O)C(=O)NCc1cccc(Cl)c1` [FP 9, N-[(3-Chlorophenyl)methyl]-3-[N-(2-methoxyphenyl)formamido]-3-methyl-2-oxobutanamide], for which the half-maximal inhibitory concentration (IC50) lay in the range of 1 to 10 µM. The figure for `COc1ccccc1N(C(C)=O)C(C)C(=O)C(=O)NCc1cccc(Cl)c1` (stereo not shown) [FP 185, N-[(3-Chlorophenyl)methyl]-3-[N-(2-methoxyphenyl)acetamido]-2-oxobutanamide] is less than 1 µM; for `COc1cccc(N(C=O)C(C)C(=O)C(=O)NCc2cccc(Cl)c2)c1` (stereo not shown) [FP 4, N-[(3-Chlorophenyl)methyl]-3-[N-(3-methoxyphenyl)formamido]-2-oxo butanamide] it is less than 1 µM; for `CC(C(=O)C(=O)NCC1CC1)N(C=O)C1CCC(F)(F)CC1` (stereo not shown) [FP 194, N-(Cyclopropylmethyl)-3-[N-(4,4-difluorocyclohexyl)formamido]-2-oxobutanamide] it is less than 1 µM. The figure for `COc1ccccc1N(C=O)[C@@H](C)C(=O)C(=O)NCc1cccc(Cl)c1` (single isomer, unassigned) [FP 3] is less than 1 µM; for `COc1ccccc1N(C=O)C(C)C(=O)C(=O)NCc1ccccc1` (stereo not shown) [FP 88, N-Benzyl-3-[N-(2-methoxyphenyl)formamido]-2-oxobutanamide] it is less than 1 µM; for `CC(=O)NCCCOCCCCOCCCNC(=O)C(=O)C1CCC(=O)N1Cc1ccc(Cl)cc1` (stereo not shown) [FP 329, 2-{1-[(4-Chlorophenyl)methyl]-5-oxopyrrolidin-2-yl}-N-{3-[4-(3-acetamidopropoxy)butoxy]propyl}-2-oxoacetamide] it is less than 1 µM. The figure for `CC(NC(=O)c1ccc(F)cc1)C(=O)C(=O)NCC1CC1` (stereo not shown) [FP 153, N-(Cyclopropylmethyl)-3-[(4-fluorophenyl)formamido]-2-oxobutanamide] is 1 to 10 µM.

For `COc1ccccc1N1C(=O)CC[C@H]1C(=O)C(=O)NCC1CC1` [FP 140, N-(cyclopropylmethyl)-2-[(2S)-1-(2-methoxyphenyl)-5-oxopyrrolidin-2-yl]-2-oxoacetamide], the IC50 was in the range of 10 to 50 µM. As to `COc1ccccc1NC(=O)C(=O)[C@H](C)N(C=O)c1ccccc1OC` [FP 82, (3S)—N-(2-Methoxyphenyl)-3-[N-(2-methoxyphenyl)formamido]-2-oxobutanamide], the 50% inhibitory concentration (IC50) is 1 to 10 µM. To `COCC(=O)N(C)C(C)C(=O)C(=O)NCC1CCCCC1` (stereo not shown) [FP 148, N-(Cyclohexylmethyl)-3-(2-methoxy-N-methylacetamido)-2-oxobutanamide] belongs less than 1 µM. To `COc1ccccc1N(C=O)C(C)C(=O)C(=O)N1CCc2ccc(Cl)cc2C1` (stereo not shown) [FP 76, N-[4-(7-Chloro-1,2,3,4-tetrahydroisoquinolin-2-yl)-3,4-dioxobutan-2-yl]-N-(2-methoxy-phenyl)formamide] belongs 10 to 50 µM; to `COc1ccccc1N1C(=O)CC[C@H]1C(=O)C(=O)NCc1cccc(Cl)c1` [FP 139, N-[(3-Chlorophenyl)methyl]-2-[(2S)-1-(2-methoxyphenyl)-5-oxopyrrolidin-2-yl]-2-oxoacetamide], 1 to 10 µM. Take `COc1ccccc1N(C=O)C(C(=O)C(=O)NCc1cccc(Cl)c1)c1ccccc1` (stereo not shown) [FP 10, N-[(3-Chlorophenyl)methyl]-3-[N-(2-methoxyphenyl)formamido]-2-oxo-3-phenylpropanamide]: the IC50 is 1 to 10 µM. To `COc1ccccc1N(C=O)C(C)C(=O)C(=O)NCc1cc(Cl)cc(Cl)c1` (stereo not shown) [FP 83, N-[(3,5-Dichlorophenyl)methyl]-3-[N-(2-methoxyphenyl)formamido]-2-oxobutanamide] belongs less than 1 µM.

Regarding `COc1cccc(CNC(=O)C(=O)C(C)N(C=O)c2ccccc2OC)c1` (stereo not shown) [FP 85, 3-[N-(2-Methoxyphenyl)formamido]-N-[(3-methoxyphenyl)methyl]-2-oxobutanamide], the IC50 was less than 1 µM. The figure for `CC(C(=O)C(=O)NCc1cccc(Cl)c1)N(C=O)c1ccccc1` (stereo not shown) [FP 6, N-[(3-Chlorophenyl)methyl]-2-oxo-3-(N-phenylformamido)butanamide] is less than 1 µM; for `CC(C(=O)C(=O)NCC1CC1)N(CC1CCOCC1)S(C)(=O)=O` (stereo not shown) [FP 223, N-(Cyclopropylmethyl)-3-{N-[(oxan-4-yl)methyl]methanesulfonamido}-2-oxobutanamide] it is 10 to 50 µM. To `COc1ccccc1N(C=O)C(C)C(=O)C(=O)NCC1CCOCC1` (stereo not shown) [FP 103, 3-[N-(2-Methoxyphenyl)formamido]-m[(oxan-4-yl)methyl]-2-oxobutanamide] belongs less than 1 µM; to `COc1ccccc1N(C=O)C(C)C(=O)C(=O)N(C)Cc1cccc(Cl)c1` (stereo not shown) [FP 77, N-[(3-Chlorophenyl)methyl]-3-[N-(2-methoxyphenyl)formamido]-N-methyl-2-oxobutanamide], less than 1 µM; to `CC(C(=O)C(=O)NCc1cccc(Cl)c1)N(C=O)Cc1ccccc1` (stereo not shown) [FP 20, 3-(N-Benzylformamido)-N-[(3-chlorophenyl)methyl]-2-oxobutanamide], less than 1 µM.

The values above are taken from patent US11091428B2 (HAPLOGEN GMBH, priority 2016, dated 2021).
